Measurements published in US9988400B2 (Genentech, Inc., priority 2013, dated 2018).

Target: T1, HEK cells stably transfected with tetracycline inducible hNR1 and hNR2A (Homo sapiens, UniProt Q05586+Q12879)
T1 construct: expressed in transfected cells; host or cells: HEK cells, stably transfected, tetracycline/doxycycline inducible
Assay: Assay 1: Cell-Based Assay, cytosolic calcium response to positive allosteric modulators (with 30 μM glycine and 300 nM L-glutamate, EC30)
Settings: Table 2; for EC50: cytosolic calcium response, with 30 μM glycine and 300 nM L-glutamate (EC30), — = no plateau was reached; for Max %: responses scaled relative to 100 μM L-glutamate maximal response (100%) and 0 μM L-glutamate (0%)
Outline: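 Cells induced 24 h with 7.5 μg mL^−1 doxycycline plus 500 μM (+)-ketamine, loaded 60 min at 37 °C with calcium dye in Mg-free HBSS (1.8 mM Ca, probenecid, 10 μM (+)-ketamine, pH 7.15). Peak RFU over 5 min after compound addition, scaled to 100 μM L-glutamate (100%) and 0 μM (0%); four-parameter Hill fit for EC50, max % if no plateau.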

T1 sequence (Q12879 23-1464, other chains not shown): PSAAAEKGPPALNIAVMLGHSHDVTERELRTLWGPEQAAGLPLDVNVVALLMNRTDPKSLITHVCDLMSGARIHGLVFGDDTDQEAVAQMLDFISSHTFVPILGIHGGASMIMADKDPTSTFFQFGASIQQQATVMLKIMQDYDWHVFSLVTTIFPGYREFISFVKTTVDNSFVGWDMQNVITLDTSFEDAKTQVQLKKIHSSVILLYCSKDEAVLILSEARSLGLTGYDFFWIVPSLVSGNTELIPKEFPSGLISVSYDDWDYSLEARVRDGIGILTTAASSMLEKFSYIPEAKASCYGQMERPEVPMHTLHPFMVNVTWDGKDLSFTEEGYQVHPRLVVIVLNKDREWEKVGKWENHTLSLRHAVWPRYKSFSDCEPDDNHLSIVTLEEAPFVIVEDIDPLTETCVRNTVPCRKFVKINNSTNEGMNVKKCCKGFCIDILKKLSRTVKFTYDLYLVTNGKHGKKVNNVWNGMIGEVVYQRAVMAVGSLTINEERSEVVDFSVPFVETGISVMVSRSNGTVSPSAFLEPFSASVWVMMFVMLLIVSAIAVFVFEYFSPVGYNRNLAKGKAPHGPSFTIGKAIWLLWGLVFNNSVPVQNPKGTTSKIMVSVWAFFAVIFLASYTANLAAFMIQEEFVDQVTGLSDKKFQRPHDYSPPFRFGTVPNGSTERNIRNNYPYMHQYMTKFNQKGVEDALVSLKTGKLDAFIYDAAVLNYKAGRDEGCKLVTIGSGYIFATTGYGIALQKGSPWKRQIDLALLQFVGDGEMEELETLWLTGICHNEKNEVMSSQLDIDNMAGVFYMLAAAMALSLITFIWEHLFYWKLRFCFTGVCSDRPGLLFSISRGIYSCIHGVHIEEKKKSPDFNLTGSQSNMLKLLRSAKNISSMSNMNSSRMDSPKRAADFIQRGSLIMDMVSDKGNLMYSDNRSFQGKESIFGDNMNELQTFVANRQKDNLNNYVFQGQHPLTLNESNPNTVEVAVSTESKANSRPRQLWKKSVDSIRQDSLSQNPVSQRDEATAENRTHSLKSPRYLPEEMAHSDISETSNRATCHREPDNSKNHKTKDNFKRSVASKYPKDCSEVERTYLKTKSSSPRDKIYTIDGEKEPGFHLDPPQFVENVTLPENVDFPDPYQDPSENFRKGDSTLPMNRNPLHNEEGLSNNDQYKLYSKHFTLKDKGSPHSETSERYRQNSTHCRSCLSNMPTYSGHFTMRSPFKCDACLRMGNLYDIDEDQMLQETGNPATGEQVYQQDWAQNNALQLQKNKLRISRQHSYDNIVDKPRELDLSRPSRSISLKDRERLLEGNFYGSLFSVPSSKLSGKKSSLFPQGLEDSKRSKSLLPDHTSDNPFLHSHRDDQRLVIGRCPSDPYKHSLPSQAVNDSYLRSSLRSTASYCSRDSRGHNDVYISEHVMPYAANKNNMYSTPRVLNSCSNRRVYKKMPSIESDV

| SMILES | EC50 [µM] | Max % [%] |
| --- | --- | --- |
| CNC(=O)c1c(C)sc2nc(COc3ccc(F)c(F)c3)cc(=O)n12 [Example 1.6, 7-(3,4-Difluorophenoxymethyl)-N,2-dimethyl-5-oxo-5H-[1,3]thiazolo[3,2-a] pyrimidine-3-carboxamide] | 31.6 | 64 |
| CCNC(=O)c1csc2nc(COc3ccc(F)cc3)cc(=O)n12 [Example 1.7, N-ethyl-7-(4-fluorophenoxymethyl)-5-oxo-5H-[1,3]thiazolo[3,2-a]pyrimidine-3-carboxamide] | 27 | 44.8 |
| Cc1sc2nc(COc3ccc(F)cc3)cc(=O)n2c1C(N)=O [Example 1.8, 7-((4-fluorophenoxy)methyl)-2-methyl-5-oxo-5H-thiazolo[3,2-a]pyrimidine-3-carboxamide] | 26.3 | 47.4 |
| Cc1sc2nc(COc3ccc(F)cc3)cc(=O)n2c1C(=O)NO [Example 1.9, 7-((4-fluorophenoxy)methyl)-N-hydroxy-2-methyl-5-oxo-5H-thiazolo[3,2-a] pyrimidine-3-carboxamide] |  | 99.5 |
| Cc1sc2nc(COc3ccc(F)cc3)cc(=O)n2c1C(=O)NC(C)C [Example 1.10, 7-(4-Fluorophenoxymethyl)-2-methyl-5-oxo-N-(propan-2-yl)-5H-[1,3]thiazolo[3,2-a] pyrimidine-3-carboxamide] |  | 44 |
| Cc1sc2nc(COc3ccc(F)cc3)cc(=O)n2c1C(=O)NCCO [Example 1.11, 7-(4-Fluorophenoxymethyl)-N-(2-hydroxyethyl)-2-methyl-5-oxo-5H-[1,3]thiazolo[3,2-a]pyrimidine-3-carboxamide] |  | 73 |
| Cc1sc2nc(COc3ccc(F)cc3)cc(=O)n2c1C(=O)NC(C)CO (stereo not drawn) [Example 1.12, 7-(4-Fluorophenoxymethyl)-N-(1-hydroxypropan-2-yl)-2-methyl-5-oxo-5H-[1,3]thiazolo[3,2-a]pyrimidine-3-carboxamide] |  | 45.5 |
| Cc1sc2nc(COc3ccc(F)cc3)cc(=O)n2c1C(=O)NCC1COC1 [Example 1.13, 7-((4-fluorophenoxy)methyl)-2-methyl-N-(oxetan-3-ylmethyl)-5-oxo-5H-thiazolo[3,2-a]pyrimidine-3-carboxamide] |  | 41.6 |
| Cc1sc2nc(COc3ccc(F)cc3)cc(=O)n2c1C(=O)NCCCO [Example 1.14, 7-((4-fluorophenoxy)methyl)-N-(3-hydroxypropyl)-2-methyl-5-oxo-5H-thiazolo[3,2-a]pyrimidine-3-carboxamide] |  | 42.7 |
| Cc1sc2nc(COc3ccc(F)cc3)cc(=O)n2c1C(=O)NC1CC1 [Example 1.15, N-cyclopropyl-7-((4-fluorophenoxy)methyl)-2-methyl-5-oxo-5H-thiazolo[3,2-a]pyrimidine-3-carboxamide] |  | 55.1 |
| CONC(=O)c1c(C)sc2nc(COc3ccc(F)cc3)cc(=O)n12 [Example 1.16, 7-((4-fluorophenoxy)methyl)-N-methoxy-2-methyl-5-oxo-5H-thiazolo[3,2-a] pyrimidine-3-carboxamide] |  | 56.5 |
| CNC(=S)c1c(C)sc2nc(COc3ccc(F)cc3)cc(=O)n12 [Example 1.17, 7-(4-Fluorophenoxymethyl)-N,2-dimethyl-5-oxo-5H-[1,3]thiazolo[3,2-a]pyrimidine-3-carbothioamide] | 4 | 68.6 |
| CCC(=O)c1c(C)sc2nc(COc3ccc(F)cc3)cc(=O)n12 [Example 2.1, 7-((4-fluorophenoxy)methyl)-2-methyl-3-propionyl-5H-thiazolo[3,2-a]pyrimidin-5-one] | 5.2 | 51.3 |
| CCC(O)c1c(C)sc2nc(COc3ccc(F)cc3)cc(=O)n12 (stereo not drawn) [Example 2.2, 7-((4-fluorophenoxy)methyl)-3-(1-hydroxypropyl)-2-methyl-5H-thiazolo[3,2-a]pyrimidin-5-one] |  | 96.5 |
| Cc1sc2nc(COc3ccc(F)cc3)cc(=O)n2c1C(C)O (stereo not drawn) [Example 2.3, 7-(4-Fluorophenoxymethyl)-3-(1-hydroxyethyl)-2-methyl-5H-[1,3]thiazolo[3,2-a]pyrimidin-5-one] | 12.6 | 49.8 |
| Cc1sc2nc(COc3ccc(F)cc3)cc(=O)n2c1C(C)(C)O [Example 2.4, 7-(4-Fluorophenoxymethyl)-3-(2-hydroxypropan-2-yl)-2-methyl-5H-[1,3]thiazolo[3,2-a]pyrimidin-5-one] | 3 | 44.6 |
| CC(=O)c1c(C)sc2nc(COc3ccc(F)cc3)cc(=O)n12 [Example 2.5, 3-acetyl-7-((4-fluorophenoxy)methyl)-2-methyl-5H-thiazolo[3,2-a]pyrimidin-5-one] | 32.9 | 115 |
| CNC(=O)Cc1c(C)sc2nc(COc3ccc(F)cc3)cc(=O)n12 [Example 2.6, 2-(7-((4-fluorophenoxy)methyl)-2-methyl-5-oxo-5H-thiazolo[3,2-a]pyrimidin-3-yl)-N-methylacetamide] | 19.6 | 59.9 |

| SMILES | EC50 [µM] | Max % [%] |
| --- | --- | --- |
| Cc1sc2nc(COc3ccc(F)cc3)cc(=O)n2c1C(=O)C1CC1 [Example 2.7, 3-Cyclopropanecarbonyl-7-(4-fluorophenoxymethyl)-2-methyl-5H-[1,3]thiazolo[3,2-a]pyrimidin-5-one] | 26 | 61.3 |
| C/C(=N\O)c1c(C)sc2nc(COc3ccc(F)cc3)cc(=O)n12 [Example 2.8, 7-(4-Fluorophenoxymethyl)-3-[1-(hydroxyimino)ethyl]-2-methyl-5H-[1,3]thiazolo[3,2-a]pyrimidin-5-one] |  | 137 |
| Cc1sc2nc(COc3ccc(F)cc3)cc(=O)n2c1C(=O)C1COC1 [Example 2.9, 7-((4-fluorophenoxy)methyl)-2-methyl-3-(oxetane-3-carbonyl)-5H-thiazolo[3,2-a]pyrimidin-5-one] |  | 56.4 |
| Cc1sc2nc(COc3ccc(F)cc3)cc(=O)n2c1C(O)C(F)(F)F (stereo not drawn) [Example 2.10, 7-((4-fluorophenoxy)methyl)-2-methyl-3-(2,2,2-trifluoro-1-hydroxyethyl)-5H-thiazolo[3,2-a]pyrimidin-5-one] |  | 119 |
| Cc1sc2nc(COc3ccc(F)cc3)cc(=O)n2c1C(=O)C(F)(F)F [Example 2.11, 7-(4-Fluorophenoxymethyl)-2-methyl-3-(trifluoroacetyl)-5H-[1,3]thiazolo[3,2-a]pyrimidin-5-one] |  | 87.4 |
| CCNC(=O)c1c(C2CC2)sc2nc(COc3ccc(F)cc3)cc(=O)n12 [Example 3.1, 2-cyclopropyl-N-ethyl-7-((4-fluorophenoxy)methyl)-5-oxo-5H-thiazolo[3,2-a]pyrimidine-3-carboxamide] | 41 | 56.2 |
| CNC(=O)c1c(C(F)(F)F)sc2nc(COc3ccc(F)cc3)cc(=O)n12 [Example 3.2, 7-(4-Fluorophenoxymethyl)-N-methyl-5-oxo-2-(trifluoromethyl)-5H-[1,3]thiazolo[3,2-a]pyrimidine-3-carboxamide] | 10.1 | 42.7 |
| CNC(=O)c1c(C2CC2)sc2nc(COc3ccc(F)cc3)cc(=O)n12 [Example 3.3, 2-Cyclopropyl-7-(4-fluorophenoxymethyl)-N-methyl-5-oxo-5H-[1,3]thiazolo[3,2-a]pyrimidine-3-carboxamide] |  | 61.8 |
| CCNC(=O)c1c(C(F)(F)F)sc2nc(COc3ccc(F)cc3)cc(=O)n12 [Example 3.4, N-Ethyl-7-(4-fluorophenoxymethyl)-5-oxo-2-(trifluoromethyl)-5H-[1,3]thiazolo[3,2-a]pyrimidine-3-carboxamide] |  | 44.6 |
| CNC(=O)c1csc2nc(COc3ccc(F)cc3)cc(=O)n12 [Example 3.5, 7-((4-fluorophenoxy)methyl)-N-methyl-5-oxo-5H-thiazolo[3,2-a]pyrimidine-3-carboxamide] |  | 65.6 |
| CCNC(=O)c1c(C)sc2nc(COc3ccc(F)cn3)cc(=O)n12 [Example 3.6, N-ethyl-7-[[(5-fluoropyridin-2-yl)oxy]methyl]-2-methyl-5-oxo-5H-[1,3]thiazolo[3,2-a]pyrimidine-3-carboxamide] |  | 68 |
| Cc1sc2nc(COc3ccc(F)cc3)cc(=O)n2c1-c1cncnc1 [Example 4.5, 7-((4-fluorophenoxy)methyl)-2-methyl-3-(pyrimidin-5-yl)-5H-thiazolo[3,2-a]pyrimidin-5-one] | 5.7 | 42.2 |
| Cc1sc2nc(COc3ccc(F)cc3)cc(=O)n2c1-c1ncco1 [Example 4.11, 7-((4-fluorophenoxy)methyl)-2-methyl-3-(oxazol-2-yl)-5H-thiazolo[3,2-a]pyrimidin-5-one] | 4.8 | 40.8 |
| Cc1sc2nc(COc3ccc(F)cc3)cc(=O)n2c1-c1ccn[nH]1 [Example 4.15, 7-((4-fluorophenoxy)methyl)-2-methyl-3-(1H-pyrazol-5-yl)-5H-thiazolo[3,2-a]pyrimidin-5-one] | 13.9 | 50 |
| Cc1sc2nc(COc3ccc(F)cc3)cc(=O)n2c1-c1nnc[nH]1 [Example 4.16, 7-((4-fluorophenoxy)methyl)-2-methyl-3-(4H-1,2,4-triazol-3-yl)-5H-thiazolo[3,2-a]pyrimidin-5-one] |  | 46.2 |
| Cc1sc2nc(COc3ccc(F)cc3)cc(=O)n2c1C1CC1 [Example 4.17, 3-cyclopropyl-7-[(4-fluorophenoxy)methyl]-2-methyl-thiazolo[3,2-a]pyrimidin-5-one] |  | 40.3 |
| Cc1sc2nc(COc3ccc(F)cc3)cc(=O)n2c1C1CC1C (stereo not drawn) [Example 4.25, 7-(4-Fluorophenoxymethyl)-2-methyl-3-(2-methylcyclopropyl)-5H-[1,3]thiazolo[3,2-a]pyrimidin-5-one] | 2.8 | 109 |
